Experimental data published in patent US20220339150A1, “ENDOCANNABINOID SYSTEM-TARGETING PRODRUGS AND THERAPEUTIC USES THEREOF” (priority 2021, published 2022).
Entries after “also recorded” stand apart in the source; their conditions may differ. Where two headings read alike, the source gives them in different places.

What was measured:
[1] = tested on: reconstructed human oral buccal epithelium cells (SkinEthic HOE, TR146 cells); test: In vitro buccal permeability (SkinEthic human oral epithelium); assay type: in vitro ADME; settings: for Species making up the buccal flux (parent vs intact prodrug): Table 2; for Species making up the buccal flux (parent vs intact prodrug) / Species making up the buccal flux / formation of parent cannabinoid: remark in flux cell; for Flux compared with parent cannabinoid / Species making up the buccal flux / formation of parent cannabinoid / Flux (buccal): Table 4; for Flux compared with parent cannabinoid: buccal flux relative to parent; for Flux (buccal): suspension ca. 2 mg/ml in 5% EtOH/phosphate buffer pH 6.8, 37° C., receiver 15% HP-β-cyclodextrin; for Buccal permeation compared with parent cannabinoid (in words): 5% ethanol suspension
Experimental: The in vitro permeability studies were carried out in commercial reconstructed human oral buccal epithelium cells (SkinEthic™ human oral epithelium). The SkinEthic™ HOE model is composed of TR146 cells (derived from a squamous cell carcinoma of the buccal mucosa) cultivated on an inert polycarbonate filter at the air-liquid interface in a chemically defined medium. This model forms an epithelial tissue devoid of stratum corneum, resembling histologically to the mucosa of the oral cavity.
Upon receiving the cells, each insert (0.5 cm^2 or 0.33 cm^2) was placed in a plate containing 800 μL fresh medium at room temperature. The culture dishes were placed in the incubator at 37° C., 5% CO2, and saturated humidity overnight. Next day, the inserts were placed in a plate containing 800 μL 15% HP-β-cyclodextrin in H2O. The prodrugs were dissolved in 100% EtOH (5% (V/V) final conc.), and then sodium phosphate buffer solution (50 mM, pH 6.8, isotonic, 37° C.) was added (95% (V/V) final conc.). 400 μL of the prodrugs were applied as suspensions (ca. 2 mg/ml). The plates were stirred gently at 37° C. At appropriate intervals, the receptor compartment was sampled (100 μL) and replenished with fresh […] solution each time. The samples were mixed with 100 μL of MeOH, and analyzed for drug (both the parent cannabinoid and the prodrug) by HPLC-MS.
The buccal flux-values for the rate of delivery of drugs were determined from Fick's law of diffusion.

[2] = Stability in 80% human plasma (serum); assay type: in vitro ADME; settings: 80% human serum (pH 7.4) at 37° C.; for Half-life in serum: Table 5; for half-life: human, serum
Experimental: The rates of the degradation of the prodrugs were determined in 80% human serum (pH 7.4) at 37° C. as an indication of the susceptibility of prodrugs to undergo bioconversion after reaching the circulation. The reactions were initiated by adding the first 10 μL of the prodrug stock solution (10 mg/mL in DMSO) to 200 μL preheated sodium phosphate buffer solution (50 mM, pH 7.4, ionic strength 0.5), and then adding 800 μL preheated human serum. The solutions were stirred at a constant temperature of 37° C. At appropriate intervals, 50 μL of samples were mixed with 150 μL of ice-cold MeOH. After immediate mixing and centrifugation (5 min at 14.000 rpm), the resulting clear supernatant was analyzed for the remaining prodrug by HPLC.

[3] = Metabolic stability in human liver microsomes; assay type: in vitro ADME; settings: for microsomal CLint / Half-life in human liver microsomes (single determinations): Table 5
Experimental: The prodrugs were incubated with the human liver microsomes at 37° C. as an indication of the susceptibility of prodrugs to undergo bioconversion in the liver. The reactions were initiated by adding 1.5 μL of the prodrug stock solution (10 mg/mL in DMSO) to a preheated solution consisting of 748.5 μL potassium phosphate buffer solution (20 mM, pH 7.4, ionic strength 0.5), 200 μL NADPH, and 50 μLhuman liver microsomes (mixed gender, 0.5 ml at 20 mg/mL). The solutions were stirred at a constant temperature of 37° C. At appropriate intervals, 50 μLof samples were mixed with 100 μL of ice-cold MeOH. After immediate mixing and centrifugation (5 min at 14.000 rpm), the resulting clear supernatant was analyzed for the remaining prodrug by HPLC.

[4] = Stability in aqueous solutions (sodium phosphate buffer, 37° C.); assay type: physicochemical; settings: for Half-life in aqueous solution: Table 5; for Half-life in aqueous solution / half-life: aqueous buffer pH 6.8, 37° C.; for half-life: buffer, read-out: Half-life in aqueous solution (converted)
Experimental: […] The solutions of prodrugs were prepared by adding 10 μL of stock solution (10 mg/mL in DMSO) to the preheated buffer. The solutions were stirred at a constant temperature of 37° C. At appropriate intervals, 75 μL of samples were mixed with 75 μL of MeOH and analyzed for remaining prodrug by HPLC.
The pseudo-first-order rate constants (kobs) and half-lives (t1/2) for the degradation of the prodrugs were determined from the linear slopes of the plots by taking the logarithm of the remaining prodrug over time. Equations: kobs=slope/−2.303 and t1/2=ln2/kobs.

[5] = both sexes, human, microsomes, pH 7.4, Table 5, average of determinations, read-out: Half-life in human liver microsomes (avg.) (converted)
[6] = both sexes, human, microsomes, pH 7.4, Table 5, 37° C., NADPH, read-out: Half-life in human liver microsomes (single determinations) (converted)
[7] = both sexes, human, microsomes, pH 7.4
[8] = pH 6.8, Table 5, single determinations

SMILES: C=C(C)[C@@H]1CCC(C)=C[C@H]1c1c(O)cc(CCCCC)cc1OC(=O)N1CCCCC1 [CBDp17, (1′R,2′R)-6-hydroxy-5′-methyl-4-pentyl-2′-(prop-1-en-2-yl)-1′,2′,3′,4′-tetrahydro-[1,1′-biphenyl]-2-yl piperidine-1-carboxylate]
- Species making up the buccal flux (parent vs intact prodrug) [1]: only intact prodrug

SMILES: CCCCCc1cc(OC(=O)N2CCNCC2)c2c(c1)OC(C)(CCC=C(C)C)C=C2 (stereo not drawn) [CBCp3, 2-methyl-2-(4-methylpent-3-en-1-yl)-7-pentyl-2H-chromen-5-yl piperazine-1-carboxylate]
- Half-life in serum [2]: stable for 6 hrs
- half-life at 15 µg/mL [3, 5]: 14.9 h
- Flux compared with parent cannabinoid [1]: No improvement
- Species making up the buccal flux / formation of parent cannabinoid [1]: NO significant formation of CBC
- Flux (buccal) [1]: 5.74 ± 0.51 (prodrug) nmol/cm^2/h

SMILES: CCCCCc1cc(O)c2c(c1)OC(C)(CCC=C(C)C)C=C2 (stereo not drawn) [CBC, Cannabichromene, reference compound]
- half-life [3, 6]: 1.93 h
- half-life [3, 5]: 1.86 h
- microsomal CLint [3, 7]: 6.21 µL/min/mg
- Flux (buccal) [1]: 27.87 ± 2.46 nmol/cm^2/h

SMILES: C=C(C)[C@@H]1CCC(C)=C[C@H]1c1c(OC(=O)C2CCNC2)cc(CCCCC)cc1OC(=O)C1CCNC1 (stereo partly drawn) [CBDp24, (1′R,2′R)-5′-methyl-4-pentyl-2′-(prop-1-en-2-yl)-1′,2′,3′,4′-tetrahydro-[1,1′-biphenyl]-2,6-diyl bis(pyrrolidine-3-carboxylate)]
- Stability in standard and aqueous solutions (in words) ([4]; Table 3 footnote e): ^e Could not be determined due to fast degradation in standard and aqueous solutions,
- Buccal permeation compared with parent cannabinoid (in words) [1]: better than that of CBD; also recorded: superior when compared to CBD and other prodrugs
- Species making up the buccal flux (parent vs intact prodrug) [1]: mostly intact

SMILES: CCCCCc1cc(OC(=O)C2CCNC2)c2c(c1)OC(C)(C)[C@@H]1CCC(C)=C[C@@H]21 (stereo partly drawn) [THCp2, (6aR,10aR)-6,6,9-trimethyl-3-pentyl-6a,7,8,10a-tetrahydro-6H-benzo[c]chromen-1-yl pyrrolidine-3-carboxylate]
- Half-life in aqueous solution ([4]; single determinations): 0.46 h
- half-life [4, 8]: 0.49 h
- Half-life in serum [2]: 0.43 h
- half-life ([2]; pH 7.4, Table 5): 0.42 h
- Half-life in human liver microsomes (single determinations) ([3]; 37° C., NADPH): 2.79 h
- half-life [3, 6]: 2.09 h
- half-life [3, 5]: 2.44 h

SMILES: CCCCCc1cc(OC(=O)N2CCN(C)CC2)c2c(c1)OC(C)(CCC=C(C)C)C=C2 (stereo not drawn) [CBCp1, 2-methyl-2-(4-methylpent-3-en-1-yl)-7-pentyl-2H-chromen-5-yl4-methylpiperazine-1-carboxylate]
- Half-life in serum [2]: stable for 6 hrs
- Half-life in human liver microsomes (single determinations) ([3]; 37° C., NADPH): 3.13 h
- half-life at 15 µg/mL [3, 6]: 4.18 h
- half-life at 15 µg/mL [3, 5]: 3.65 h
- Flux compared with parent cannabinoid [1]: No improvement
- Species making up the buccal flux / formation of parent cannabinoid [1]: NO significant formation of CBC
- Flux (buccal) [1]: 15.88 ± 0.70 (prodrug) nmol/cm^2/h

SMILES: CCCCCc1cc(O)c2c(c1)OC(C)(C)[C@@H]1CCC(C)=C[C@@H]21 [THC, Δ9-Tetrahydrocannabinol, reference compound]
- half-life [3, 6]: 0.17 h
- half-life [3, 5]: 0.18 h
- microsomal CLint [3, 7]: 64.2 µL/min/mg
- Flux (buccal) [1]: 19.65 ± 0.36 nmol/cm^2/h

SMILES: C=C(C)[C@@H]1CCC(C)=C[C@H]1c1c(O)cc(CCCCC)cc1OC(=O)CN1CCN(C)CC1 [CBDp7, (1′R,2′R)-6-hydroxy-5′-methyl-4-pentyl-2′-(prop-1-en-2-yl)-1′,2′,3′,4′-tetrahydro-[1,1′-biphenyl]-2-yl 2-(4-methylpiperazin-1-yl)acetate]
- half-life ([4]; pH 6.8, Table 3): 0.16 h
- half-life ([2]; pH 7.4, Table 3): 2.6 h
- half-life ([3]; both sexes, human, microsomes, pH 7.4, Table 3, 37° C., NADPH, read-out: Half-life in human liver microsomes (single determinations) (converted)): 0.12 h
- Buccal permeation compared with parent cannabinoid (in words) [1]: better than that of CBD
- Species making up the buccal flux (parent vs intact prodrug) [1]: 1/3 CBD & 2/3

SMILES: CCCCCc1cc(O)c(C/C=C(\C)CCC=C(C)C)c(OC(=O)N2CCN(C)CC2)c1 [CBGp2, (E)-2-(3,7-dimethylocta-2,6-dien-1-yl)-3-hydroxy-5-pentylphenyl 4-methylpiperazine-1-carboxylate]
- Half-life in aqueous solution ([4]; single determinations): 1.17 h
- half-life [4, 8]: 1.14 h
- Half-life in serum [2]: No degradation
- Half-life in human liver microsomes (single determinations) ([3]; 37° C., NADPH): 1.73 h
- half-life at 15 µg/mL [3, 6]: 1.62 h
- half-life at 15 µg/mL [3, 5]: 1.68 h
- Flux compared with parent cannabinoid [1]: No improvement
- Species making up the buccal flux / formation of parent cannabinoid [1]: NO significant formation of CBG
- Flux (buccal) [1]: 4.45 ± 0.45 (prodrug) nmol/cm^2/h

SMILES: CCCCCc1cc(O)c(C/C=C(\C)CCC=C(C)C)c(OC(=O)N2CCNCC2)c1 [CBGp5, (E)-2-(3,7-dimethylocta-2,6-dien-1-yl)-3-hydroxy-5-pentylphenyl piperazine-1-carboxylate]
- Half-life in aqueous solution ([4]; single determinations): 0.26 h
- half-life [4, 8]: 0.38 h
- Half-life in serum [2]: No degradation
- Half-life in human liver microsomes (single determinations) ([3]; 37° C., NADPH): 1.79 h
- half-life at 15 µg/mL [3, 6]: 1.29 h
- half-life at 15 µg/mL [3, 5]: 1.54 h
- Flux compared with parent cannabinoid [1]: No improvement
- Species making up the buccal flux / formation of parent cannabinoid [1]: NO significant formation of CBG
- Flux (buccal) [1]: 10.31 ± 0.54 (prodrug) nmol/cm^2/h

SMILES: C=C(C)[C@@H]1CCC(C)=C[C@H]1c1c(O)cc(CCCCC)cc1OC(=O)N1CCNCC1 [CBDp21, (1′R,2′R)-6-hydroxy-5′-methyl-4-pentyl-2′-(prop-1-en-2-yl)-1′,2′,3′,4′-tetrahydro-[1,1′-biphenyl]-2-yl piperazine-1-carboxylate]
- Buccal permeation compared with parent cannabinoid (in words) [1]: better than that of CBD
- Species making up the buccal flux (parent vs intact prodrug) [1]: only intact prodrug

SMILES: CCCCCc1cc(OC(=O)N2CCNCC2)c2c(c1)OC(C)(C)[C@@H]1CCC(C)=C[C@@H]21 [THCp3, (6aR,10aR)-6,6,9-trimethyl-3-pentyl-6a,7,8,10a-tetrahydro-6H-benzo[c]chromen-1-yl piperazine-1-carboxylate]
- Half-life in aqueous solution ([4]; single determinations): 1.07 h
- half-life [4, 8]: 0.76 h
- Half-life in serum [2]: No degradation
- half-life [3, 5]: 3.65 h
- Buccal permeation compared with parent cannabinoid (in words) [1]: slightly better than THC
- Flux compared with parent cannabinoid [1]: 1.6-times better
- Species making up the buccal flux / formation of parent cannabinoid [1]: NO significant formation of THC
- Flux (buccal) [1]: 31.30 ± 1.31 (prodrug) nmol/cm^2/h

SMILES: CCCCCc1cc(O)c(C/C=C(\C)CCC=C(C)C)c(O)c1 [CBG, Cannabigerol, reference compound]
- microsomal CLint at 15 µg/mL [3, 7]: 7.18 µL/min/mg
- half-life at 15 µg/mL ([3]; both sexes, human, microsomes, pH 7.4, Half-life in human liver microsomes (avg.)): 1.61 h
- half-life at 15 µg/mL ([3]; both sexes, human, microsomes, pH 7.4, Half-life in human liver microsomes (single determinations)): 1.79 h
- Kobs (based on microsomes Half-life) ([3]; human, microsomes): 0.43

SMILES: C=C(C)[C@@H]1CCC(C)=C[C@H]1c1c(OC(=O)N2CCCCC2)cc(CCCCC)cc1OC(=O)N1CCCCC1 [CBDp18, (1′R,2′R)-5′-methyl-4-pentyl-2′-(prop-1-en-2-yl)-1′,2′,3′,4′-tetrahydro-[1,1′-biphenyl]-2,6-diyl bis(piperidine-1-carboxylate)]
- Species making up the buccal flux (parent vs intact prodrug) [1]: only intact prodrug
